Laboratory results: patent publication US12201848B2, “Device and methods for use in removal of bio-film and treatment of halitosis” (priority 2016, dated 2025)
Entries after “also recorded” stand apart in the source; their conditions may differ.

Legend:
P. gingivalis ATCC 33277 = assay: Lethal photosensitization of P. Gingivalis (colony count); assay type: cell-based
Method: Suitable stain dosages for providing lethal sensitization of oral pathogens are determined in vitro by the following procedure. An objective is to determine the minimum duration of light exposure and minimum agent dilution required to achieve at least a 50% reduction in bacteria counts. Experimental tests are performed on two common pathogens using a continuously working, high intensity, red filtered halogen lamp. Red light from the filtered halogen lamp is transmitted through a flexible light guide to radiate downwardly onto petri dishes containing samples of live bacteria of species Porphyromonas Gingivalis and Prevotella Intermedia using the protocols described below. Bacteria. Prevoltella Intermedia is isolated from patient sample material, identified in the laboratory using standard diagnostic test systems (Remel Inc., Lenexa, Kans., USA) and is maintained by twice-weekly subculture in thioglycollate medium (Becton Dickinson and Co, Sparks, Md., USA). P. gingivalis ATCC 33277 obtained from Remel Inc., is maintained by a twice-weekly subculture on CDC anaerobe blood agar (Becton Dickinson and Co, USA) and in thioglycollate medium (Becton Dickinson and Co, USA). Light Source. […] The light output power density measured at 3 cm distance from the end of the light guide with filter is about 50 milliwatts/cm2. […]

[1] = system: Porphyromonas Gingivalis and Prevotella Intermedia; assay: Lethal photosensitization of oral pathogens by methylene blue and red-filtered halogen light (colony count); assay type: cell-based; conditions: for Percent of Living Bacteria: mean of both species +/- SD
Method: Suitable stain dosages for providing lethal sensitization of oral pathogens are determined in vitro by the following procedure. An objective is to determine the minimum duration of light exposure and minimum agent dilution required to achieve at least a 50% reduction in bacteria counts. Experimental tests are performed on two common pathogens using a continuously working, high intensity, red filtered halogen lamp. Red light from the filtered halogen lamp is transmitted through a flexible light guide to radiate downwardly onto petri dishes containing samples of live bacteria of species Porphyromonas Gingivalis and Prevotella Intermedia using the protocols described below. Bacteria. Prevoltella Intermedia is isolated from patient sample material, identified in the laboratory using standard diagnostic test systems (Remel Inc., Lenexa, Kans., USA) and is maintained by twice-weekly subculture in thioglycollate medium (Becton Dickinson and Co, Sparks, Md., USA). P. gingivalis ATCC 33277 obtained from Remel Inc., is maintained by a twice-weekly subculture on CDC anaerobe blood agar (Becton Dickinson and Co, USA) and in thioglycollate medium (Becton Dickinson and Co, USA). Light Source. The source for light energy is a continuously working, high intensity halogen lamp having a built-in 250-Watt quartz halogen light source, model I-250 supplied by Medithon, New York, N.Y., USA. Such lights are customarily employed for ear, nose or throat procedures. The light is transmitted through a flexible light guide and filtered to maintain maximum energy output at wavelengths in the vicinity of about 650 nm using a broadband red filter (Edmund Optics Inc., Barrington, N.J., USA). The light output power density measured at 3 cm distance from the end of the light guide with filter is about 50 milliwatts/cm2. Photosensitizer. […] Lethal photosensitization of P. Intermedia. Petri dishes containing CDC anaerobe blood agar (Becton Dickinson and Co, USA) are inoculated with 0.5 ml of broth containing 5×10^5 CFU/ml and left closed at room temperature for about 10 minutes to let the broth penetrate the agar media. […] Only plates with concentrations of 0.01%, and 0.025% are used in the experiment with 20 min light exposure. Four plates are used for each experiment. […] The controls are covered to protect them from ambient light. […] A total of 108 subcultures is used for the experiment. Plates are incubated in anaerobic conditions in the jars using anaerobic pack kits (BBL GasPak Plus, Becton Dickinson and Co, Sparks, Md., USA) at 37° C. for 24 hours. Samples of the resulting culture growth are taken from each plate with sterile […] standard loop, dispensed in 1 ml of sterile NS and placed at the same media. Cultures are incubated at anaerobic conditions at 37° C. for another 24 hours, and after that the resulting colony count is performed on each plate. Lethal photosensitization of P. Gingivalis. Serial dilutions of the P. gingivalis culture are prepared from the initial culture preserved on plates using 1:L sterile standard loop (Becton Dickinson and Co, USA) and sterile NS. A Vitek calorimeter (Hach Company, Loveland, Colo., USA) is used to achieve a final concentration of about 5×10^3 CFU/ml from an initial 0.5 standard McFarland suspension of 10^8 CFU/ml. Plates containing CDC anaerobic blood agar (Becton Dickinson and Co, USA) are inoculated with the resulting suspension using sterile 10:L standard loops (Becton Dickinson and Co, USA). […] Plates are also incubated at 37° C. in the tightly closed jars supplied with anaerobic pack kits (BBL GasPak Plus, Becton Dickinson and Co, USA) for 24 hours, and the resulting colony count is performed on each plate.

## CN(C)c1ccc2nc3ccc(=[N+](C)C)cc-3sc2c1 [methylene blue]
P. gingivalis ATCC 33277; methylene blue 0.01%, no light, P. gingivalis culture
  bacterial killing without light exposure: statistically significant bacterial killing
P. gingivalis ATCC 33277; methylene blue 0.1%
  bactericidal effect on P. gingivalis: bactericidal effect
[1]; 0.05% methylene blue alone
  reduction of bacteria without exposure to light: insignificant
[1]; either species, any concentration of methylene blue
  difference between exposure for 10 and 20 minutes: No statistically significant difference
[1]; methylene blue 0.001% or 0.025%, without halogen light
  killing of bacteria without halogen light: nor concentrations of methylene blue of 0.001% or 0.025%, without halogen light, appeared to be effective in killing bacteria
[1]; methylene blue 0.01% or higher, exposure less than 10 minutes, accumulated energy 30 J/cm2, both species
  bactericidal effect with red-filtered light: bactericidal effect
[1]; methylene blue 0.01%, exposure to red light 0
  Percent of Living Bacteria: 70 +/− 11%
[1]; methylene blue 0.01%, red light 1 min
  Percent of Living Bacteria: 73 +/− 6%
[1]; methylene blue 0.01%, red light 5 min
  Percent of Living Bacteria: 69 +/− 7%
[1]; methylene blue 0.01%, red light 10 min
  Percent of Living Bacteria: 55 +/− 6%
[1]; methylene blue 0.01%, red light 20 min
  Percent of Living Bacteria: 51 +/− 4%
[1]; methylene blue 0.025%, exposure to red light 0
  Percent of Living Bacteria: 75 +/− 14%
[1]; methylene blue 0.025%, light exposure 5 min
  reduction in bacteria counts: Significant reduction in bacteria counts
[1]; methylene blue 0.025%, red light 1 min
  Percent of Living Bacteria: 67 +/− 4%
[1]; methylene blue 0.025%, red light 5 min
  Percent of Living Bacteria: 47 +/− 6%
[1]; methylene blue 0.025%, red light 10 min
  Percent of Living Bacteria: 48 +/− 8%
[1]; methylene blue 0.025%, red light 20 min
  Percent of Living Bacteria: 49 +/− 5%
[1]; methylene blue 0.025%, time intervals 5 and 10 min
  killing with duration of red light: statistically significant increased killing with duration
[1]; methylene blue 0.05% and higher, light exposure 1 min
  reduction in bacteria counts: Significant reduction in bacteria counts
[1]; methylene blue 0.05%, exposure to red light 0
  Percent of Living Bacteria: 68 +/− 12%
[1]; methylene blue 0.05%, red light 1 min
  Percent of Living Bacteria: 53 +/− 10%
[1]; methylene blue 0.05%, red light 5 min
  Percent of Living Bacteria: 32 +/− 7%
[1]; methylene blue 0.05%, red light 10 min
  Percent of Living Bacteria: 32 +/− 9%
[1]; methylene blue 0.05%, time intervals 1 min, 5 min and 10 min
  killing with duration of red light: statistically significant increased killing with duration
[1]; methylene blue 0.075% and 0.1%, light exposure 1 min, both cultures
  bacterial count reduction: statistically significant bacterial count reduction
[1]; methylene blue 0.075% and 0.1%, no red light
  bactericidal effect without light exposure: significant bactericidal effect; also recorded: significantly bactericidal
[1]; methylene blue 0.075%, exposure to red light 0
  Percent of Living Bacteria: 51 +/− 10%
[1]; methylene blue 0.075%, red light 1 min
  Percent of Living Bacteria: 45 +/− 5%
[1]; methylene blue 0.075%, red light 5 min
  Percent of Living Bacteria: 26 +/− 5%
[1]; methylene blue 0.075%, red light 10 min
  Percent of Living Bacteria: 25 +/− 5%
[1]; methylene blue 0.1%, exposure to red light 0
  Percent of Living Bacteria: 35 +/− 9%
[1]; methylene blue 0.1%, red light 1 min
  Percent of Living Bacteria: 39 +/− 12%
[1]; methylene blue 0.1%, red light 5 min
  Percent of Living Bacteria: 28 +/− 9%
[1]; methylene blue 0.1%, red light 10 min
  Percent of Living Bacteria: 24 +/− 4%
